Assay results as given in ChEMBL document CHEMBL3352652, “Oleanolic acid analogs as NO, TNF-α and IL-1β inhibitors: synthesis, biological evaluation and docking studies” (Bioorg Med Chem Lett, 2014).
In brackets after ≈: the same amount, converted by molar mass.

Columns and labels:
[1] = tested on: RAW264.7; assay: Inhibition of LPS-induced NO production in mouse RAW264.7 cells compound preincubated for 1 hr before LPS treatment by Griess reaction; assay type: functional, cell-based
[2] = tested on: J774.A1; assay: Inhibition of LPS-induced NO production in mouse J774A1 cells compound preincubated for 1 hr before LPS treatment by Griess reaction; assay type: functional, cell-based
[3] = tested on: RAW264.7; assay: Cytotoxicity mouse RAW264.7 cells assessed as cell viability by MTT assay relative to control; assay type: cell-based
[4] = Cytotoxicity against mouse J774A1 cells assessed as cell viability by MTT assay relative to control; assay type: cell-based; settings: J774.A1
[5] = tested on: RAW264.7; assay: Inhibition of LPS-induced TNF-alpha release in mouse RAW264.7 cells compound preincubated at 20 ug/ml for 1 hr before LPS treatment measured after 6 to 12 hrs by sandwich immunoassay; assay type: functional
[6] = tested on: J774.A1; assay: Inhibition of LPS-induced TNF-alpha release in mouse J774A1 cells compound preincubated at 20 ug/ml for 1 hr before LPS treatment measured after 6 to 12 hrs by sandwich immunoassay; assay type: functional
[7] = tested on: RAW264.7; assay: Inhibition of LPS-induced IL1-beta release in mouse RAW264.7 cells compound preincubated at 20 ug/ml for 1 hr before LPS treatment measured after 6 to 12 hrs by sandwich immunoassay; assay type: functional
[8] = tested on: J774.A1; assay: Inhibition of LPS-induced IL1-beta release in mouse J774A1 cells compound preincubated at 20 ug/ml for 1 hr before LPS treatment measured after 6 to 12 hrs by sandwich immunoassay; assay type: functional
[9] = tested on: RAW264.7; assay: Inhibition of LPS-induced TNF-alpha release in mouse RAW264.7 cells compound preincubated for 1 hr before LPS treatment measured after 6 to 12 hrs by sandwich immunoassay; assay type: functional, cell-based
[10] = tested on: J774.A1; assay: Inhibition of LPS-induced TNF-alpha release in mouse J774A1 cells compound preincubated for 1 hr before LPS treatment measured after 6 to 12 hrs by sandwich immunoassay; assay type: functional, cell-based
[11] = tested on: RAW264.7; assay: Inhibition of LPS-induced IL1-beta release in mouse RAW264.7 cells compound preincubated for 1 hr before LPS treatment measured after 6 to 12 hrs by sandwich immunoassay; assay type: functional, cell-based
[12] = tested on: J774.A1; assay: Inhibition of LPS-induced IL1-beta release in mouse J774A1 cells compound preincubated for 1 hr before LPS treatment measured after 6 to 12 hrs by sandwich immunoassay; assay type: functional, cell-based

| SMILES | IC50 [1] [µM] | IC50 [2] [µM] | IC50 [3] [µM] | IC50 [4] [µM] | inhibition at 20 µg/mL [5] [%] | inhibition at 20 µg/mL [6] [%] | inhibition at 20 µg/mL [7] [%] | inhibition at 20 µg/mL [8] [%] | IC50 [9] [µg/mL] | IC50 [10] [µg/mL] | IC50 [11] [µg/mL] | IC50 [12] [µg/mL] |
| --- | --- | --- | --- | --- | --- | --- | --- | --- | --- | --- | --- | --- |
| COC(=O)[C@]12CCC(C)(C)C[C@H]1C1=CC[C@@H]3[C@@]4(C)CCC(=O)C(C)(C)[C@@H]4CC[C@@]3(C)[C@]1(C)CC2 | 31.7 | 33.5 | 79.3 | 82.5 | – | – | – | – | – | – | – | – |
| CC1(C)CC[C@]2(C(=O)O)CC[C@]3(C)C(=CC[C@@H]4[C@@]5(C)CC/C(=N\O)C(C)(C)[C@@H]5CC[C@]43C)[C@@H]2C1 | 39.2 | 41.3 | 82.4 | 85.5 | – | – | – | – | – | – | – | – |
| CC1(C)CC[C@]2(C(=O)Cl)CC[C@]3(C)C(=CC[C@@H]4[C@@]5(C)Cc6c([nH]c7ccccc67)C(C)(C)[C@@H]5CC[C@]43C)[C@@H]2C1 | 22.8 | 24.9 | 86.2 | 89.3 | – | – | – | – | – | – | – | – |
| CC1(C)CC[C@]2(C(=O)NN)CC[C@]3(C)C(=CC[C@@H]4[C@@]5(C)Cc6c([nH]c7ccccc67)C(C)(C)[C@@H]5CC[C@]43C)[C@@H]2C1 | 16.5 | 17.7 | 92.4 | 91 | 31.2 | 27.9 | 13.9 | 11.1 | – | – | – | – |
| CNC(=O)[C@]12CCC(C)(C)C[C@H]1C1=CC[C@@H]3[C@@]4(C)Cc5c([nH]c6ccccc56)C(C)(C)[C@@H]4CC[C@@]3(C)[C@]1(C)CC2 | 4.75 | 15.9 | 90.3 | 91.7 | 43.7 | 40.3 | 13.3 | 11.8 | – | – | – | – |
| CC1(C)CC[C@]2(C(=O)NC3CCCCC3)CC[C@]3(C)C(=CC[C@@H]4[C@@]5(C)Cc6c([nH]c7ccccc67)C(C)(C)[C@@H]5CC[C@]43C)[C@@H]2C1 | 2.66 | 10.8 | 96.4 | 97.3 | 47.8 | 51.9 | 37.5 | 31.7 | – | – | – | – |
| CC1(C)CC[C@]2(C(=O)NCc3ccccc3)CC[C@]3(C)C(=CC[C@@H]4[C@@]5(C)Cc6c([nH]c7ccccc67)C(C)(C)[C@@H]5CC[C@]43C)[C@@H]2C1 | 24.1 | 18.4 | 93.5 | 93.5 | – | – | – | – | – | – | – | – |
| Cc1ccc(C)c(NC(=O)[C@]23CCC(C)(C)C[C@H]2C2=CC[C@@H]4[C@@]5(C)Cc6c([nH]c7ccccc67)C(C)(C)[C@@H]5CC[C@@]4(C)[C@]2(C)CC3)c1 | 23.2 | 29.4 | 83.2 | 84.7 | – | – | – | – | – | – | – | – |
| Cc1ccc(NC(=O)[C@]23CCC(C)(C)C[C@H]2C2=CC[C@@H]4[C@@]5(C)Cc6c([nH]c7ccccc67)C(C)(C)[C@@H]5CC[C@@]4(C)[C@]2(C)CC3)cc1 | 22.6 | 26.1 | 80.4 | 83.5 | – | – | – | – | – | – | – | – |
| CC1(C)CC[C@]2(C(=O)Nc3ccc(Br)cc3)CC[C@]3(C)C(=CC[C@@H]4[C@@]5(C)Cc6c([nH]c7ccccc67)C(C)(C)[C@@H]5CC[C@]43C)[C@@H]2C1 | 25.4 | 27.4 | 85.3 | 87 | – | – | – | – | – | – | – | – |
| CC1(C)CC[C@]2(C(=O)O)CC[C@]3(C)C(=CC[C@@H]4[C@@]5(C)Cc6c([nH]c7ccccc67)C(C)(C)[C@@H]5CC[C@]43C)[C@@H]2C1 | 18.8 | 21 | 80.2 | 83.7 | – | – | – | – | – | – | – | – |
| CC(=O)O[C@H]1CC[C@]2(C)[C@H]3CC=C4[C@@H]5CC(C)(C)CC[C@]5(C(=O)O)CC[C@@]4(C)[C@]3(C)CC[C@H]2C1(C)C [ACETYL OLEANOLIC ACID] | 13.8 | 16.8 | 79.2 | 80.3 | 38.7 | 33.1 | 22.8 | 21.1 | – | – | – | – |
| COc1cc(/C=C/C(=O)CC(=O)/C=C/c2ccc(O)c(OC)c2)ccc1O [CURCUMIN] | – | 18.5 | – | – | – | – | – | – | 1.25 (≈ 3.39 µM) | 2.08 (≈ 5.65 µM) | 6.44 (≈ 17.5 µM) | 24.8 (≈ 67.4 µM) |
| C[C@@H]1C[C@H]2[C@@H]3CCC4=CC(=O)C=C[C@]4(C)[C@@]3(F)[C@@H](O)C[C@]2(C)[C@@]1(O)C(=O)CO [DEXAMETHASONE] | – | – | – | – | – | – | – | – | 0.016 (≈ 0.0408 µM) | 0.165 (≈ 0.42 µM) | 1.84 (≈ 4.69 µM) | 9.09 (≈ 23.2 µM) |
| COC(=O)[C@@H](N)CCCNC(=N)N[N+](=O)[O-] [L-NAME] | – | 73.2 | – | – | – | – | – | – | – | – | – | – |
| CC1(C)CC[C@]2(C(=O)O)CC[C@]3(C)C(=CC[C@@H]4[C@@]5(C)CC[C@H](O)C(C)(C)[C@@H]5CC[C@]43C)[C@@H]2C1 [OLEANOLIC_ACID] | 41.7 | 35.2 | 89.1 | 87.2 | – | – | – | – | – | – | – | – |
| CC1(C)CC[C@]2(C(=O)O)CC[C@]3(C)C(=CC[C@@H]4[C@@]5(C)CCC(=O)C(C)(C)[C@@H]5CC[C@]43C)[C@@H]2C1 [OLEANONIC ACID] | 38.5 | 38.8 | 89.6 | 87.7 | – | – | – | – | – | – | – | – |
